Reference: PMC5595280, “Cytotoxicity and anti-tumor effects of new ruthenium complexes on triple negative breast cancer cells” (PLoS ONE, 2017)

Key:
DNA = test system: DNA; parameters: method as in not given; settings: order of magnitude reported for classical intercalators; ref not given; cited from earlier work
[1] = Water-octanol partition coefficient (stir-flask method); type: physicochemical; settings: 24 h shaking, 37°C
Description: The water-octanol partition coefficients were determined by use of the stir-flask method. The complex was added in a mixture with equal volumes of water and octanol shaking by 24 h at 100 rpm and 37°C, samples were centrifuged for 5min at 300rpm, the organic and aqueous phases were separated. The concentration of drug in each phase was measured spectrophotometrically in order to determine values of P = [drug] (in octanol)/[drug] (in water).

HSA = HSA (Homo sapiens, UniProt P02768); assay: HSA tryptophan fluorescence quenching; type: binding; settings: for ΔS (HSA): complex-HSA system
Description: For fluorescence measurements, the HSA concentration in Tris–HCl buffer was kept constant in all the samples, while the complex concentration was increased from 0.50 to 50 μM, and quenching of the emission intensity of the HSA tryptophan residues at 305 nm (excitation wavelength 270 nm) was monitored at different temperatures (25°C and 37°C). The experiments were carried out in triplicate and analysed using the classical Stern-Volmer equation. The binding constant (Kb) and number of complexes bound to HSA (n) were determined by plotting the double log graph of the fluorescence data using: log [(F0-F)/F] = log Kb + nlog[Q]. The thermodynamic parameter (ΔH) was calculated from equation: ln (K2/K1) = [(1/T1)-(1/T2)]ΔH/R, where K1 and K2 are the binding constants at temperatures T1 and T2, and R is the gas constant. Furthermore, the change in free energy (ΔG) and entropy (ΔS) were calculated from the following equation: ΔG = -RT lnK = ΔH − TΔS.
Human serum albumin (HSA) is the most abundant protein in the blood and cerebrospinal fluid and plays a fundamental role in the distribution of essential transition metal ions in the human body. Moreover, HSA is an important physiological transporter of the essential metal ions Cu^2+, and Zn^2+ in the bloodstream. […] The fluorescence spectrum is essentially that of tryptophan residue; contribution of tyrosine is relatively minor. In order to determine the protein binding affinity of complexes (1–4), tryptophan emission quenching experiments were carried out by adding the complexes in increasing concentration (0–50 μM) to HSA at two different temperatures and following the decrease in fluorescence intensities (Fig 6D). The results point out a good linearity at the two different temperatures. The binding constants, KSV, calculated from the Stern-Volmer equation are presented on Table 2.

MCF-10A cells [2] = assay: Cell morphology (inverted microscope); type: cell-based, human; settings: 24 h; for effect on cell morphology: 25 and 50 μM
Description: (§1) Exponentially growing MDA-MB-231, MCF-7 or MCF-10A cells were harvested, counted and seeded (1x10^5 cells/mL) and plated on sterile 12-well plates for 24 h. Cells were allowed to grow at 37°C in 5% CO2 overnight and then, treated or not (control) with different concentrations of the complexes (1–4) for 2 and 24 h. Cell morphology was examined under an inverted microscope (Nikon, T5100) with amplification of 100×.
(§2) In this work the cytotoxicity of the complexes was evaluated against the MDA-MB-231, MCF-7 and MCF-10A cells by morphology, clonogenic and MTT assays (Fig 2, Table 1). To investigate the effects on cell morphology, the complexes were incubated with cells at concentrations of 25 and 50 μM for 24 h.

MDA-MB-231 cells [3] = assay: Cell morphology (inverted microscope); type: cell-based, human; settings: 24 h
Description: as §1, §2

MCF-7 cells [4] = assay: Cell morphology (inverted microscope); type: cell-based, human; settings: MCF-7, 25 and 50 μM, 24 h
Description: as §1, §2

MCF-10A cells [5] = assay: MTT cell proliferation assay; type: cell-based, human; settings: 24 h of incubation, read-out: IC50 ±SEM MCF-10A
Description: (§3) MDA-MB-231 human breast tumor cells and MCF7 human breast tumor cells, obtained from Rio de Janeiro Cell Bank, were maintained at 37°C in 5% CO2 in DMEM medium containing fetal bovine serum (FBS) 10% (Vitrocell). MCF-10A, a non-tumor breast cell line, obtained from Rio de Janeiro Cell Bank, was cultivated in DMEM/F12 medium containing horse serum (HS) 5%, EGF (0.02 mg/mL); hydrocortisone (0.05 mg/mL); cholera toxin (0.001 mg/mL) and insulin (0.01 mg/mL). Both media contained penicillin (100 UI/mL), streptomycin ([…]) and L-glutamine (2 mM).
(§4) Proliferation assays were performed as described earlier. Briefly, cells lines were prepared in a concentration of 1x10^4 cells/100 μL, in complete medium (with 10% FBS), and plated on sterile 96-well plates for 24 h. The culture medium was removed from the wells and a new one, supplemented with 10% FBS and containing different concentrations of (1) [Ru(SO4)(dppb)(bipy)] (2) [Ru(CO3)(dppb)(bipy)], (3), [Ru(C2O4)(dppb)(bipy)], or (4) [Ru(CH3CO2)(dppb)(bipy)]PF6, was added to the wells. Cells were incubated for 24 h under the same conditions as described above. Cell proliferation assay was performed in comparison with untreated control. After incubation, the culture medium of each well was removed and a solution containing MTT (1 mg/mL) was added (100 μL/well). The plates were then kept at 37°C for 4 h and the formed crystals were dissolved in DMSO. The absorbance was read on an ELISA plate reader at a wavelength of 540 nm. […] The selectivity index (SI) was calculated as the ratio IC50 (MCF-10A) / IC50 (MDA-MB-231).
(§5) Each experiment was repeated three times in triplicate and a standard error mean was calculated. Shapiro-Wilk’s test was used to verify data normality. As normal distribution was present, the results were compared statistically with a one-way or two-way analysis of variance (ANOVA). […] The data were analysed and IC50 calculations were made using Hill’s equation in the GraphPad Prism software (version 6.05).

MDA-MB-231 cells [6] = assay: MTT cell proliferation assay; type: cell-based, human; settings: 24 h of incubation, read-out: IC50 ±SEM MDA-MB-231
Description: as §3, §4, §5

MCF-7 cells [7] = assay: MTT cell proliferation assay; type: cell-based, human; settings: 24 h of incubation, read-out: IC50 ±SEM MCF-7
Description: as §3, §4, §5

pBR322 plasmid DNA = assay: Agarose gel electrophoresis of plasmid DNA; type: binding; settings: Ri 0.50, 18 h, 37°C
Description: Ten microliters of pBR322 plasmid DNA in a Tris-HCl buffer were incubated at 37°C for 18 h with molar ratios between 0.12 and 0.5. After incubation, 5 μL of each sample was separated by electrophoresis in a 1% agarose gel for 45 min at 100V using a Tris borate–EDTA buffer (TBE) and stained with ethidium bromide ([…] ethidium bromide per 40 mL agarose gel mixture). Samples of DNA with DMSO were used as controls. The DNA bands were visualized as an image using a UV light transilluminator (ChemiDoc MP, BioRad Laboratories).
The influence of the compounds on the tertiary structure of DNA was determined by their ability to modify the electrophoretic mobility of forms of pBR322 plasmid DNA (Fig 6C). Agarose gel electrophoresis was performed using pBR322 plasmid DNA in the absence and presence of the complexes. […] In Ri 0.12 and 0.25 complexes (1–3) show the corresponding open circular, linear and super coiled form. […] This means that the degree of super helicity of the DNA molecules has been altered, in the same way as that described previously for other coordination platinum(II) and palladium (II) compounds containing 7-azaindolyl ligand [36].

Chain of HSA (P02768 25-609): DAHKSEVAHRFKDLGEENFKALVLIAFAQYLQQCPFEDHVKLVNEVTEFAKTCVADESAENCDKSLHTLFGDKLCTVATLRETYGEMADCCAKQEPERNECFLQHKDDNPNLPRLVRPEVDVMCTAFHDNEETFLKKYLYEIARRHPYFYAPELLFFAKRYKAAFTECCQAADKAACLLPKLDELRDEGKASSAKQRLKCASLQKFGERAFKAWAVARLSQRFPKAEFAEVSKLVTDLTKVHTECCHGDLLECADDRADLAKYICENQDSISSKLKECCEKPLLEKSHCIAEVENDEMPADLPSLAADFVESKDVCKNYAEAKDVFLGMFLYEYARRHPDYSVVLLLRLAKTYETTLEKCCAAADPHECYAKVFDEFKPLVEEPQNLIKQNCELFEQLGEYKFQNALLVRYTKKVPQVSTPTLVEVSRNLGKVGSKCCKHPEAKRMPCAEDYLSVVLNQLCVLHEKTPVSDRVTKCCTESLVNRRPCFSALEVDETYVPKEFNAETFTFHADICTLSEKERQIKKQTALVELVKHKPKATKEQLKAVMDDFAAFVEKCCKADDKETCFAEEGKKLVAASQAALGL

Compound	DNA binding constant (DNA)	Log P [1]	Kq (HSA) (HSA; T 298) [M⁻¹ s⁻¹]	Ksv (HSA) (HSA; T 298)	n (number of binding sites, HSA) (HSA; T 298)	Kq (HSA) (HSA; T 310) [M⁻¹ s⁻¹]	Ksv (HSA) (HSA; T 310)	n (number of binding sites, HSA) (HSA; T 310)	ΔS (HSA) (HSA) [J.mol^-1K]	effect on cell morphology (MCF-10A cells [2])	effect on cell morphology (MDA-MB-231 cells [3]; MDA-MB-231, 25 and 50 μM)	effect on cell morphology (MCF-7 cells [4])	IC50 (MCF-10A cells [5]) [µM]	IC50 (MDA-MB-231 cells [6]) [µM]	IC50 (MCF-7 cells [7]) [µM]	effect on cell morphology / cell density (MCF-10A cells [2]; 50 μM)	effect on cell morphology (MDA-MB-231 cells [3]; MDA-MB-231, 50 μM)	electrophoretic mobility of super coiled pBR322 band (pBR322 plasmid DNA)
CC[n+]1c(-c2ccccc2)c2cc(N)ccc2c2ccc(N)cc21 [ethidium bromide]	10^6 to 10^7 M^-1	–	–	–	–	–	–	–	–	–	–	–	–	–	–	–	–	–
[Ru(phen)2(dppz)]^2+	10^6 to 10^7 M^-1	–	–	–	–	–	–	–	–	–	–	–	–	–	–	–	–	–
O=S(=O)([O-])[O-].[Ru+2].c1ccc(-c2ccccn2)nc1.c1ccc(P(CCCCP(c2ccccc2)c2ccccc2)c2ccccc2)cc1 [Complex (1), [Ru(SO4)(dppb)(bipy)]]	–	0.26 ± 0.06	5.26e+13	5.04 ± 0.09 x10^4 M^-1	1.10	4.65e+13	4.45 ± 0.18 x10^4 M^-1	1.06	72.70	altered the morphology	did not alter the morphology	did not alter the morphology	42.8 ± 5.02	> 200	> 200	–	–	–
O=C([O-])C(=O)[O-].[Ru+2].c1ccc(-c2ccccn2)nc1.c1ccc(P(CCCCP(c2ccccc2)c2ccccc2)c2ccccc2)cc1 [Complex (3), [Ru(C2O4)(dppb)(bipy)]]	–	0.06 ± 0.008	1.63e+13	1.56 ± 0.13 x10^4 M^-1	0.90	1.702e+13	1.63 ± 0.10 x10^4 M^-1	0.85	80.00	–	did not alter the morphology	did not alter the morphology	42.2 ± 2.37	> 200	> 200	reduced cell density	–	–
[Ru(CO3)(dppb)(bipy)] [Complex (2)]	–	0.55 ± 0.02	2.935e+13	2.81 ± 0.12 x10^4 M^-1	1.00	3.425e+13	3.28 ± 0.14 x10^4 M^-1	0.98	85.80	did not alter the morphology	–	did not alter the morphology	31.5 ± 1.06	52.7 ± 0.62	> 200	–	profoundly altered their morphology	increased the electrophoretic mobility
[Cl-].[Cl-].[Ru+2].c1ccc(-c2ccccn2)nc1.c1ccc(P(CCCCP(c2ccccc2)c2ccccc2)c2ccccc2)cc1 [Precursor, cis-[RuCl2(dppb)(bipy)], reference compound]	–	-0.40 ± 0.01	–	–	–	–	–	–	–	–	–	–	81.9 ± 7.87	> 200	> 200	–	–	–
N.N.[Cl][Pt][Cl] [Cisplatin, reference compound]	–	–	–	–	–	–	–	–	–	–	–	–	29.4 ± 0.85	2.43 ± 0.2	79.18 ± 0.2	–	–	–
